In patent US8030335B2, “Use of liver X receptor agonists” (Laboratoires Fournier S.A., priority 2005, dated 2011):

Key:
Glut2 mRNA = assay: Real-time quantitative RT-PCR of Glut2 in isolated islets of treated ZDF rats; type: in vivo, rat; details: normalized to 18S rRNA, vehicle ZDF 0.27, fa+ 0.40±0.22
Method: Pancreatic and duodenal homeobox gene 1, Pdx1 (Genbank: NM_022852) and facilitated glucose transporter, member 2, Glut2 (Genbank: NM_012879) gene expression were measured by real time quantitative RT-PCR. Total RNAs from fresh isolated rat pancreatic islets were prepared using Rneasy 96 Kit according to the manufacturer's protocol (Qiagen, France), treated with Dnase I to remove contaminating DNA (Stratagene, France), and quantified using the iScript cDNA Synthesis and iQ SYBR Green Supermix kits (Biorad, france). Real-time quantitative RT-PCR was performed using the iCycler Detection System instrument and software (Bio-Rad). As the predicted size of the amplified cDNAs and the Tm values for the primers were similar, uniform amplification conditions were applied (ie. annealing at 60° C.). Specificity of amplified products was monitored by performing melting curves at the end of each amplification. Expression levels were quantified (total RNA units) by generating a six-point serial standard curve. RNA samples were normalized for comparison by determining 18S rRNA levels. In this example, the mRNA expression of PDX1 and Glut2 was determined. As previously described, PDX1 and Glut2 are markers of the regeneration of beta cells. […] PDX1 and Glut2 mRNA expression was increased in islets isolated from GW3965-compared to vehicle-treated ZDF rats. […]

[1] = system: male Zucker Diabetic Fatty fa/fa (ZDF) rat; assay: Plasma glucose in ZDF rats during and after 3 weeks of oral treatment; type: in vivo
Description: The male Zucker Diabetic Fatty fa/fa (ZDF) rat is a model of Type II diabetes. The rats are insulin resistant but normoglycemic from birth and they develop diabetes from about week 7 to week 10 of age. During the transitional period, the animals go through a state of impaired glucose tolerance. Although the animals are hyperinsulinemic before diabetes onset and during the early stages of diabetes, they later lose glucose-stimulated insulin secretion and finally become almost completely insulinopenic. Male ZDF fa/fa and ZDF fa+ rats were obtained from Genetic Models (Indianapolis, Ind.), at the age of 6 weeks and used in the experiments at 12 weeks of age, after 3 weeks of oral treatment with vehicle or GW3965 (10 mg/kg). Compounds were given once daily (at 17 h) via oral gavage. At the time of their use, the ZDF fa/fa rats weighed 310-350 g, whereas the age-matched ZDF fa+ rats weighed 245-285 g. ZDF fa+ and ZDF fa/fa animals had free access to diabetogenic chow (Purina 5008). Animals were housed 5 per cage in a temperature and humidity-controlled room with a 12/12-h light-dark cycle. Blood samples were taken 16 h after compound administration via the tail vein and measured on a Konelab 300 (Labsystem) clinical chemistry analyzer. At the beginning of the study, glycemia was similar in vehicle- and GW3965-treated ZDF rats.

NOD mice = assay: Insulitis development in NOD mice (pancreatic histology); type: in vivo, mouse
Description: NOD (non-obese diabetes) mice is an experimental model of spontaneous resembling human Type I (insulin-dependent) diabetes, which results from the progressive islet invasion and beta cells destruction by autoreactive T cells. This spontaneous diabetes model offers a unique opportunity of studying the autoreactive T cells involved in the process of beta cell destruction and of settling preventive strategies before clinical onset of the disease. Non fasted mice were killed two days after the last administration of compounds. Pancreatic glands were excised and processed for conventional histological studies after fixation in Bouin's alcoholic solution. Five μm sections were stained with haematoxylin-eosin as described previously by Thivolet C. H. et al., 1991, Diabetologia, 34, 314-319. The evolution of insulitis was analysed in pancreas. […] State 4 was not observed in 8 weeks old mice, this state appeared at around 9-10 weeks. NOD mice of 4 weeks old have been treated for 4 weeks (5 days/7) with vehicle or GW3965 at 50 mg/kg. Pancreatic histological studies have been carried out as described above.

[2] = system: isolated pancreatic islets; assay: Insulin content of pancreatic islets isolated from treated ZDF rats; type: in vivo, rat; details: 10 mg/kg oral for 3 weeks, vehicle 4.78±0.86, fa+ 27.74±6.85, mean±SEM
Method: Male ZDF fa/fa and ZDF fa+ rats were obtained from Genetic Models (Indianapolis, Ind.), at the age of 6 weeks and used in the experiments at 12 weeks of age, after 3 weeks of oral treatment with vehicle or GW3965 (10 mg/kg). Compounds were given once daily (at 17 h) via oral gavage. At the time of their use, the ZDF fa/fa rats weighed 310-350 g, whereas the age-matched ZDF fa+ rats weighed 245-285 g. ZDF fa+ and ZDF fa/fa animals had free access to diabetogenic chow (Purina 5008). Animals were housed 5 per cage in a temperature and humidity-controlled room with a 12/12-h light-dark cycle. Blood samples were taken 16 h after compound administration via the tail vein and measured on a Konelab 300 (Labsystem) clinical chemistry analyzer. Rat pancreatic islets were prepared by collagenase digestion and density gradient purification. The enzyme collagenase type XI (Sigma Chemical, St. Louis, Mo.) was used for digestion of the pancreas. After an overnight fast, animals were deeply anesthetized and killed. Then, the pancreatic duct was cannulated, and 20 ml of the digestion solution at 37° C. […] Insulin content was measured in the same islets after an overnight alcohol-acid extraction (Ethanol 75%+HCl 0.15 N). Insulin concentrations in the different media were determined by rat insulin ELISA test (Insulin Rat Elite plus, MERCODIA).

## O=C(O)Cc1cccc(OCCCN(Cc2cccc(C(F)(F)F)c2Cl)CC(c2ccccc2)c2ccccc2)c1 [GW3965]
Glut2 mRNA
  Glut2 mRNA expression: 0.55±0.23
[1]; 10 mg/kg oral once daily, day 6 to day 21, vs vehicle
  plasma glucose (glycemia) during treatment: significantly prevented this rise and maintained glycemia at low level
[1]; after 21 days of treatment
  glycemia and HbA1c: significant decrease
[1]; day 44, no treatment from day 21, previously 10 mg/kg oral for 3 weeks
  glycemia after the end of treatment: still significantly reduced
NOD mice; NOD mice of 4 weeks old, 50 mg/kg for 4 weeks (5 days/7), control 32%
  normal islets in the pancreas: 94%
NOD mice; NOD mice, 50 mg/kg for 4 weeks, pancreatic sections
  insulitis (lymphocytes infiltration): appears protected against the lymphocytes infiltration
[2]
  insulin content of islets: 13.05±2.49 ng/islet
